In patent US8961970B2, “Combination therapy” (Novartis AG, priority 2012, dated 2015):

Columns and labels:
Miapaca-2 cells = assay: Cell proliferation / viability assay (CellTiter-Glo, dose matrix) in Miapaca-2 cells; assay type: cell-based
Protocol: (§1) A cell proliferation assay was performed to investigate the activity of the combination of COMPOUND A and ANTIBODY A on Insulin-like Growth Factor 1 (IGF1)-induced proliferation of the KRAS mutant cell lines Miapaca-2 and AsPC-1. To evaluate the combination effect in a non-biased way, and to identify synergistic effects at different concentrations, the study was conducted using a “dose matrix” scheme (described in detail below).
(§2) COMPOUND A (10 mM) was stored in aliquots at −20° C. ANTIBODY A (0.2 mM in 1% BSA) was stored in aliquots at 4° C. Insulin-like Growth Factor-1 (IGF1; R&D System, Cat #291-G1) was reconstituted at 100 ug/mL in sterile Phosphate Buffered Saline (PBS).
(§3) The KRAS mutant, pancreatic cancer cell lines Miapaca-2 and AsPC-1 were cultured in DMEM medium (ATCC Cat #30-2002) and RPMI-1640 (ATCC Cat #30-2001) plus 10% Fetal Bovine Serum (FBS; Invitrogen Cat #10099-141) as recommended by the supplier. Cells were cultured in T-150 flasks using standard cell culture techniques and split upon reaching 80% confluency. TryPLE Express (Invitrogen #12604-013, no phenal red) was used for all cell dissociation. Cell count and viability were measured using Trypan dye exclusion with a ViCell counter (Beckman-Coulture). Cells were determined to be free of Mycoplasma using a PCR detection method (www.radil.missouri.edu). […]

AsPC-1 cells = assay: Cell proliferation / viability assay (CellTiter-Glo, dose matrix) in AsPC-1 cells; assay type: cell-based
Protocol: as §1, §2, §3

Compound: Cn1cnc2c(F)c(Nc3ccc(Br)cc3F)c(C(=O)NOCCO)cc21 [COMPOUND A, 6-(4-bromo-2-fluorophenylamino)-7-fluoro-3-methyl-3H-benzoimidazole-5-carboxylic acid (2-hydroxyethyoxy)-amide]
- single agent anti-proliferative activity (Miapaca-2 cells; Miapaca-2, KRAS mutant pancreatic cancer cell line, 120 hours incubation, presence and absence of IGF1 (100 ng/ml)): concentration dependent anti-proliferative activity
- effect of addition of IGF1 on single agent activity (Miapaca-2 cells; Miapaca-2, with versus without IGF1): slightly dampen
- single agent anti-proliferative activity (AsPC-1 cells; AsPC-1, KRAS mutant pancreatic cancer cell line, 120 hours incubation, presence and absence of IGF1 (100 ng/ml)): concentration dependent anti-proliferative activity
- effect of addition of IGF1 on single agent activity (AsPC-1 cells; AsPC-1, with versus without IGF1): slightly dampen
